Measured values: US6689094B2, “Compound delivery using impulse transients” (priority 1996, dated 2004)

Test system: stratum corneum
Source text: For these experiments, a Q-switched solid state ruby laser (20 ns pulse duration, capable of generating up to 2 joules per pulse) was used to generate the laser beam, which hit the target material (black polystyrene sheet about 1 mm thick) and generated a single impulse transient. Impulse transients of up to 1000 bar peak stress and 50 ns duration and with a ½ inch beam diameter can be generated with this laser-target system. The large target ensures that the impulse transients generated are plane waves, because the thickness of the coupling medium is much shorter than the diameter of the impulse transient. An articulating arm was used and the laser path was totally covered for safety.
The washer was attached onto the skin with grease. The sample filled the central opening of the washer, which was approximately ¼ inch in diameter. The target material was positioned on top of the washer and irradiated with 1 laser pulse.
The black polystyrene target completely absorbed the laser radiation so that the skin was exposed only to impulse transients, and not laser radiation. […] The skin was monitored for fluorescence of protophyrin IX thirty minutes after exposure to the impulse transients.
All fluorescence measurements were compared to the fluorescence emission of the target site on the stratum corneum before the experiments.

time for which protophyrin IX fluorescence intensity increased until maximum intensity (5% ALA in PBS, single impulse transient, skin fluorescence): approximately 4 hours
time post-treatment at which the fluorescence peak at about 640 nm is highest (FIG. 1, single impulse transient): 210 min
change of skin fluorescence intensity over time without impulse transient (FIG. 2, adjacent control site, ALA applied without any impulse transients): little change in the intensity
dependence of transdermal transport on peak stress (FIG. 3, single impulse transient at 300, 400 or 600 bar): increases with increasing peak stress
Compound: NCC(=O)CCC(=O)O [ALA, 5-aminolevulenic acid]
protophyrin IX fluorescence when compound applied after the impulse transient (ALA applied on the same sites 5 minutes after impulse transients): no fluorescence emission from protophyrin IX was observed
